According to ChEMBL document CHEMBL1201862, “PubChem BioAssay data set” (2004):
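In this assay, cells in 96-well plates receive the compound at five concentrations for 48 hours. Endpoints are linearly interpolated between the surrounding concentrations. GI50 is the concentration that inhibits growth by half.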 Calls of active or inactive are those of the source. Cut-off read from the data, not from the text of the source: active = GI50 up to about 1.1 µM and inactive = higher.

How the values were obtained:
Assay in all cases: NCI anticancer screen, dose series, 48 h
ACHN = tested on: ACHN
EKVX = tested on: EKVX
HOP-92 = tested on: HOP-92
Hs-578T = tested on: Hs-578T
K562 = tested on: K562
KM12 = tested on: KM12
LOX IMVI = tested on: LOX IMVI
MDA-N = tested on: MDA-N
NCI/ADR-RES = tested on: NCI/ADR-RES
PC-3 = tested on: PC-3
SF-268 = tested on: SF-268
SF-295 = tested on: SF-295
SF-539 = tested on: SF-539
SK-OV-3 = tested on: SK-OV-3
SNB-19 = tested on: SNB-19
SR = tested on: SR
U-251 = tested on: U-251
UACC-62 = tested on: UACC-62
UO-31 = tested on: UO-31
OVCAR-3 = tested on: OVCAR-3

Structure (SMILES) | GI50 (ACHN) | GI50 (EKVX) | GI50 (HOP-92) | GI50 (Hs-578T) | GI50 (K562) | GI50 (KM12) | GI50 (LOX IMVI) | GI50 (MDA-N) | GI50 (NCI/ADR-RES) | GI50 (PC-3) | GI50 (SF-268) | GI50 (SF-295) | GI50 (SF-539) | GI50 (SK-OV-3) | GI50 (SNB-19) | GI50 (SR) | GI50 (U-251) | GI50 (UACC-62) | GI50 (UO-31) | GI50 (OVCAR-3)
CCOC(=O)/C=C/C1OC(C)(C)OC1/C=C/C(=O)OCC (configuration not stated) | 38.4 µM (inactive) | 29.8 µM (inactive) | 19.4 µM (inactive) | 37.8 µM (inactive) | 21.4 µM (inactive) | 25.4 µM (inactive) | 27 µM (inactive) | 35.1 µM (inactive) | 32.7 µM (inactive) | 44.9 µM (inactive) | 41.4 µM (inactive) | 48.6 µM (inactive) | 40.2 µM (inactive) | > 100 µM (inactive) | 33.9 µM (inactive) | 15.1 µM (inactive) | 41.3 µM (inactive) | 39.9 µM (inactive) | > 100 µM (inactive) | –
N=C(N)N/N=C\c1c(-c2ccccc2)nc2sccn12 | 16.9 µM (inactive) | 14.5 µM (inactive) | 14.1 µM (inactive) | 14 µM (inactive) | 17.3 µM (inactive) | 14.2 µM (inactive) | 16.3 µM (inactive) | 14.1 µM (inactive) | 18.2 µM (inactive) | 15.1 µM (inactive) | 16.4 µM (inactive) | 14.7 µM (inactive) | 16.5 µM (inactive) | 19 µM (inactive) | 14.3 µM (inactive) | 22.4 µM (inactive) | 15.2 µM (inactive) | 15.9 µM (inactive) | 17.8 µM (inactive) | –
Oc1c(Br)cc(CN(Cc2cc(Br)c(O)c(Br)c2)C2CCCCC2)cc1Br | > 100 µM (inactive) | > 100 µM (inactive) | > 100 µM (inactive) | > 100 µM (inactive) | > 100 µM (inactive) | > 100 µM (inactive) | > 100 µM (inactive) | > 100 µM (inactive) | > 100 µM (inactive) | > 100 µM (inactive) | > 100 µM (inactive) | > 100 µM (inactive) | – | > 100 µM (inactive) | > 100 µM (inactive) | > 100 µM (inactive) | > 100 µM (inactive) | > 100 µM (inactive) | > 100 µM (inactive) | > 100 µM (inactive)
CC(=O)OC12c3ccccc3-c3ccccc3C1C1C(=O)OC(=O)C12 (configuration not stated) | > 10 µM (inactive) | > 10 µM (inactive) | > 10 µM (inactive) | > 10 µM (inactive) | > 10 µM (inactive) | > 10 µM (inactive) | > 10 µM (inactive) | > 10 µM (inactive) | > 10 µM (inactive) | > 10 µM (inactive) | > 10 µM (inactive) | > 10 µM (inactive) | > 10 µM (inactive) | > 10 µM (inactive) | > 10 µM (inactive) | > 10 µM (inactive) | > 10 µM (inactive) | – | > 10 µM (inactive) | > 10 µM (inactive)
C/C=C/OC1C(C2COC(C)(C)O2)OC2OC(C)(C)OC21 (configuration not stated) | > 100 µM (inactive) | > 100 µM (inactive) | > 100 µM (inactive) | > 100 µM (inactive) | > 100 µM (inactive) | – | > 100 µM (inactive) | > 100 µM (inactive) | > 100 µM (inactive) | > 100 µM (inactive) | > 100 µM (inactive) | > 100 µM (inactive) | > 100 µM (inactive) | > 100 µM (inactive) | > 100 µM (inactive) | > 100 µM (inactive) | > 100 µM (inactive) | – | > 100 µM (inactive) | > 100 µM (inactive)
CC(=O)NNc1nc(C)c(C(/C=C/c2ccc(NC(C)=O)cc2)=N/NS(=O)(=O)c2ccc(C)cc2)s1 | > 100 µM (inactive) | > 100 µM (inactive) | > 100 µM (inactive) | > 100 µM (inactive) | – | > 100 µM (inactive) | > 100 µM (inactive) | > 100 µM (inactive) | > 100 µM (inactive) | > 100 µM (inactive) | > 100 µM (inactive) | 27.9 µM (inactive) | > 100 µM (inactive) | > 100 µM (inactive) | > 100 µM (inactive) | > 100 µM (inactive) | > 100 µM (inactive) | > 100 µM (inactive) | > 100 µM (inactive) | > 100 µM (inactive)
CC1(C)N=c2c(ncn2CCO)=C(C(N)=O)N1 | > 100 µM (inactive) | > 100 µM (inactive) | 26.2 µM (inactive) | > 100 µM (inactive) | > 100 µM (inactive) | > 100 µM (inactive) | > 100 µM (inactive) | > 100 µM (inactive) | > 100 µM (inactive) | > 100 µM (inactive) | > 100 µM (inactive) | > 100 µM (inactive) | > 100 µM (inactive) | > 100 µM (inactive) | > 100 µM (inactive) | > 100 µM (inactive) | > 100 µM (inactive) | > 100 µM (inactive) | – | > 100 µM (inactive)
CC(=O)N1C=Cc2c(c(C)c3c([nH]c4ccccc43)c2C)C1 | 1.09 µM (active) | 0.479 µM (active) | 5.4 µM (inactive) | 3.62 µM (inactive) | > 100 µM (inactive) | 2.9 µM (inactive) | 4.07 µM (inactive) | 8.75 µM (inactive) | 2.5 µM (inactive) | 4.95 µM (inactive) | 7.4 µM (inactive) | 8.22 µM (inactive) | 5.27 µM (inactive) | 13.6 µM (inactive) | 10.2 µM (inactive) | 34.2 µM (inactive) | 4.89 µM (inactive) | – | – | 1.74 µM (inactive)
CCC1c2[nH]c3ccccc3c2C[C@H]2C(=O)NC(CCCCNC(=O)OC(C)(C)C)C(=O)N12 (some centres not stated) | 35.9 µM (inactive) | 42 µM (inactive) | 34 µM (inactive) | 19.7 µM (inactive) | 35.8 µM (inactive) | 18.5 µM (inactive) | 24.8 µM (inactive) | 20.7 µM (inactive) | 25.7 µM (inactive) | 22.7 µM (inactive) | 45.1 µM (inactive) | 22.9 µM (inactive) | – | 55.8 µM (inactive) | 44.2 µM (inactive) | 24.8 µM (inactive) | 38.5 µM (inactive) | 20.5 µM (inactive) | 34.6 µM (inactive) | 18.4 µM (inactive)
COc1cc(C)c2c(c1C=O)Oc1c(c(C)c(O)c3c1C(O)OC3=O)OC2=O (configuration not stated) [STICTIC ACID] | 22 µM (inactive) | 32.6 µM (inactive) | 99.3 µM (inactive) | 36.8 µM (inactive) | – | 19.6 µM (inactive) | 28.4 µM (inactive) | 17.5 µM (inactive) | 37.2 µM (inactive) | 34.4 µM (inactive) | 21.4 µM (inactive) | 49.2 µM (inactive) | 31.5 µM (inactive) | 49.5 µM (inactive) | 14.5 µM (inactive) | 16 µM (inactive) | 33.5 µM (inactive) | 25.6 µM (inactive) | 29.1 µM (inactive) | 32.5 µM (inactive)
CC1(C)C(OC(=O)c2ccccc2)C[C@]23CCC[C@](C)(C[C@@H](O)C12)C3 (some centres not stated) | 17.9 µM (inactive) | 19.9 µM (inactive) | 16 µM (inactive) | 19 µM (inactive) | 13.5 µM (inactive) | 16.7 µM (inactive) | 17 µM (inactive) | 18.9 µM (inactive) | 14.5 µM (inactive) | 11.5 µM (inactive) | 24.1 µM (inactive) | 13.9 µM (inactive) | – | 85.7 µM (inactive) | 23.6 µM (inactive) | 9.91 µM (inactive) | > 10 µM (inactive) | 15.2 µM (inactive) | 18.8 µM (inactive) | 30.6 µM (inactive)
